# Experimental data reported in US20230085307A1, “PYRIDAZINONE COMPOUND AND HERBICIDE” (NISSAN CHEMICAL CORPORATION, priority 2019, published 2023).
# Key:
# [1] = tested on: Japanese bulrush; experiment: Test Example 1: herbicidal activity, application before weed generation under submerged conditions (Table 16, symbol B); type: in vivo, Japanese bulrush (Schoenoplectus juncoides); details: amount of applied herbicide 320 g/ha
# Summary of the method: (§1)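 Alluvial soil was flooded to 4 cm depth, weed seeds were sown mixed and 2.5-leaf rice seedlings were transplanted. On sowing day, the compound's emulsion, diluted in water to a set dose, was applied to the water surface. Plants grew at 25–30 °C and were scored 0–5 after three weeks.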
# [2] = tested on: oval-leafed pondweed; experiment: Test Example 1: herbicidal activity, application before weed generation under submerged conditions (Table 16, symbol C); type: in vivo, oval-leafed pondweed (Monochoria vaginalis); details: amount of applied herbicide 320 g/ha
# Summary of the method: as §1
# [3] = tested on: late watergrass; experiment: Test Example 2: herbicidal activity, application during weed generation under submerged conditions (Table 17, symbol A); type: in vivo, late watergrass (Echinochloa oryzicola); details: AAH 320 g/ha; application during weed generation, submerged conditions
# Summary of the method: (§2)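 Steps: fill Wagner pots with alluvial soil; add water to give 4 cm depth; sow the species mixed; grow under glass at 25–30° C.; at 1–2 leaves apply water-diluted emulsion formulation to the water surface at a fixed herbicide amount; score after 3 weeks.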
# [4] = tested on: Japanese bulrush; experiment: Test Example 2: herbicidal activity, application during weed generation under submerged conditions (Table 17, symbol B); type: in vivo, Japanese bulrush (Schoenoplectus juncoides); details: AAH 320 g/ha; application during weed generation, submerged conditions
# Summary of the method: as §2
# [5] = tested on: barnyard grass; experiment: Test Example 3: herbicidal effect by foliage application, Wagner pot (Table 18, symbol H); type: in vivo, barnyard grass (Echinochloa crus-galli); details: for herbicidal effect on barnyard grass (H): 320 g/ha; for herbicidal effect on H: barnyard grass: amount of applied herbicide 320 g/ha
# Summary of the method: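 Plants were sown in alluvial soil held under 0.1–0.5 cm standing water and grown 14 days in a greenhouse at 25–30 °C. An emulsifiable formulation, water-diluted to the set dose, was then sprayed onto the foliage, and effects were scored three weeks later using previously defined criteria.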
# [6] = tested on: southern crabgrass; experiment: Test Example 4: herbicidal effect by soil treatment (Table 19, symbol F); type: in vivo, southern crabgrass (Digitaria ciliaris); details: amount of applied herbicide 320 g/ha
# Summary of the method: (§3)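 Applied as a water-diluted emulsion, the compound was sprayed onto soil covering newly sown seeds. Evaluation came three weeks after application, in a greenhouse held at 25° C. to 30° C.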
# [7] = tested on: barnyard grass; experiment: Test Example 4: herbicidal effect by soil treatment (Table 19, symbol H); type: in vivo, barnyard grass (Echinochloa crus-galli); details: amount of applied herbicide 320 g/ha
# Summary of the method: as §3
# [8] = tested on: blackgrass; experiment: Test Example 4: herbicidal effect by soil treatment (Table 19, symbol J); type: in vivo, blackgrass (Alopecurus myosuroides); details: amount of applied herbicide 320 g/ha
# Summary of the method: as §3
# [9] = tested on: redroot pigweed; experiment: Test Example 4: herbicidal effect by soil treatment (Table 19, symbol N); type: in vivo, redroot pigweed (Amaranthus retroflexus); details: amount of applied herbicide 320 g/ha
# Summary of the method: as §3
# [10] = tested on: chickweed; experiment: Test Example 4: herbicidal effect by soil treatment (Table 19, symbol P); type: in vivo, common chickweed (Stellaria media); details: amount of applied herbicide 320 g/ha
# Summary of the method: as §3
# [11] = tested on: southern crabgrass; experiment: Test Example 5: herbicidal effect by foliage application, plastic box (Table 20, symbol F); type: in vivo, southern crabgrass (Digitaria ciliaris); details: 320 g/ha; for F: southern crabgrass, herbicidal effect grade: foliage application, three weeks after application
# Summary of the method: (§4)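 Sow seeds spot-wise in sterilized diluvial soil; cover with ~1.5 cm soil. Grow 14 days in greenhouse, 25° C. to 30° C. Spray foliage with emulsion diluted to predetermined amount. Rate effect after 3 weeks.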
# [12] = tested on: green foxtail; experiment: Test Example 5: herbicidal effect by foliage application, plastic box (Table 20, symbol G); type: in vivo, green foxtail (Setaria viridis); details: 320 g/ha; for G: green foxtail, herbicidal effect grade: foliage application, three weeks after application
# Summary of the method: as §4
# [13] = tested on: wild oat; experiment: Test Example 5: herbicidal effect by foliage application, plastic box (Table 20, symbol I); type: in vivo, wild oat (Avena fatua); details: 320 g/ha; for I: wild oat, herbicidal effect grade: foliage application, three weeks after application
# Summary of the method: as §4
# [14] = tested on: blackgrass; experiment: Test Example 5: herbicidal effect by foliage application, plastic box (Table 20, symbol J); type: in vivo, blackgrass (Alopecurus myosuroides); details: 320 g/ha; for J: blackgrass, herbicidal effect grade: foliage application, three weeks after application
# Summary of the method: as §4
# [15] = tested on: redroot pigweed; experiment: Test Example 5: herbicidal effect by foliage application, plastic box (Table 20, symbol N); type: in vivo, redroot pigweed (Amaranthus retroflexus); details: 320 g/ha; for N: redroot pigweed, herbicidal effect grade: foliage application, three weeks after application
# Summary of the method: as §4
# [16] = tested on: lambsquarters; experiment: Test Example 5: herbicidal effect by foliage application, plastic box (Table 20, symbol O); type: in vivo, lambsquarters (Chenopodium album); details: 320 g/ha; for O: lambsquarters, herbicidal effect grade: foliage application, three weeks after application
# Summary of the method: as §4
# [17] = tested on: persian speedwell; experiment: Test Example 5: herbicidal effect by foliage application, plastic box (Table 20, symbol R); type: in vivo, Persian speedwell (Veronica persica); details: 320 g/ha; for R: persian speedwell, herbicidal effect grade: foliage application, three weeks after application
# Summary of the method: as §4
# [18] = foliage application after 14-day growth, evaluated three weeks after application
SMILES,"Herbicidal effect, B: Japanese bulrush [1]","Herbicidal effect, C: oval-leafed pondweed [2]","herbicidal effect rating, A: late watergrass [3]","herbicidal effect rating, B: Japanese bulrush [4]",herbicidal effect on barnyard grass (H) [5],"F: southern crabgrass, herbicidal effect grade [11]","G: green foxtail, herbicidal effect grade [12]","I: wild oat, herbicidal effect grade [13]","J: blackgrass, herbicidal effect grade [14]","N: redroot pigweed, herbicidal effect grade [15]","O: lambsquarters, herbicidal effect grade [16]","R: persian speedwell, herbicidal effect grade [17]",herbicidal effect on H: barnyard grass [5],"herbicidal effect, F: southern crabgrass [6]","herbicidal effect, H: barnyard grass [7]","herbicidal effect, J: blackgrass [8]","herbicidal effect, N: redroot pigweed [9]","herbicidal effect, P: chickweed [10]",also measured
CCOc1ccc2c(-c3c(O)c(C)nn(C)c3=O)c(-c3ccc(OC)cc3)sc2c1 [3-091],4 (Herbicidal rate of 70% or more and less than 90%),4 (Herbicidal rate of 70% or more and less than 90%),0 (Herbicidal rate of 5% or less (almost no effect)),3 (Herbicidal rate of 40% or more and less than 70%),2 (Herbicidal rate of 20% or more and less than 40%),2 (Herbicidal rate of 20% or more and less than 40%),0 (Herbicidal rate of 5% or less (almost no effect)),0 (Herbicidal rate of 5% or less (almost no effect)),3 (Herbicidal rate of 40% or more and less than 70%),4 (Herbicidal rate of 70% or more and less than 90%),5 (Herbicidal rate of 90% or more (almost completely withered)),5 (Herbicidal rate of 90% or more (almost completely withered)),,,,,,,"F: southern crabgrass, herbicidal effect grade [6]: 2 (Herbicidal rate of 20% or more and less than 40%); H: barnyard grass, herbicidal effect grade [7]: 0 (Herbicidal rate of 5% or less (almost no effect)); J: blackgrass, herbicidal effect grade [8]: 0 (Herbicidal rate of 5% or less (almost no effect)); N: redroot pigweed, herbicidal effect grade [9]: 3 (Herbicidal rate of 40% or more and less than 70%); P: chickweed, herbicidal effect grade [10]: 4 (Herbicidal rate of 70% or more and less than 90%)"
COc1cc(F)ccc1-c1sc2cc(F)ccc2c1-c1c(O)c(C)nn(C)c1=O [3-009],3 (Herbicidal rate of 40% or more and less than 70%),1 (Herbicidal rate of 5% or more and less than 20%),0 (Herbicidal rate of 5% or less (almost no effect)),1 (Herbicidal rate of 5% or more and less than 20%),,5 (Herbicidal rate of 90% or more (almost completely withered)),5 (Herbicidal rate of 90% or more (almost completely withered)),5 (Herbicidal rate of 90% or more (almost completely withered)),5 (Herbicidal rate of 90% or more (almost completely withered)),5 (Herbicidal rate of 90% or more (almost completely withered)),5 (Herbicidal rate of 90% or more (almost completely withered)),5 (Herbicidal rate of 90% or more (almost completely withered)),5 (Herbicidal rate of 90% or more (almost completely withered)),5 (Herbicidal rate of 90% or more (almost completely withered)),5 (Herbicidal rate of 90% or more (almost completely withered)),4 (Herbicidal rate of 70% or more and less than 90%),5 (Herbicidal rate of 90% or more (almost completely withered)),4 (Herbicidal rate of 70% or more and less than 90%),
CCCC(=O)Oc1c(C)nn(C)c(=O)c1-c1c(-c2ccc3c(c2)OCCO3)sc2cc(F)ccc12 [3-014],3 (Herbicidal rate of 40% or more and less than 70%),5 (Herbicidal rate of 90% or more (almost completely withered)),3 (Herbicidal rate of 40% or more and less than 70%),0 (Herbicidal rate of 5% or less (almost no effect)),,3 (Herbicidal rate of 40% or more and less than 70%),3 (Herbicidal rate of 40% or more and less than 70%),1 (Herbicidal rate of 5% or more and less than 20%),1 (Herbicidal rate of 5% or more and less than 20%),5 (Herbicidal rate of 90% or more (almost completely withered)),5 (Herbicidal rate of 90% or more (almost completely withered)),5 (Herbicidal rate of 90% or more (almost completely withered)),5 (Herbicidal rate of 90% or more (almost completely withered)),0 (Herbicidal rate of 5% or less (almost no effect)),0 (Herbicidal rate of 5% or less (almost no effect)),0 (Herbicidal rate of 5% or less (almost no effect)),3 (Herbicidal rate of 40% or more and less than 70%),4 (Herbicidal rate of 70% or more and less than 90%),
COc1ccccc1-c1sc2cc(SC)ccc2c1-c1c(O)c(C)nn(C)c1=O [3-163],3 (Herbicidal rate of 40% or more and less than 70%),3 (Herbicidal rate of 40% or more and less than 70%),3 (Herbicidal rate of 40% or more and less than 70%),0 (Herbicidal rate of 5% or less (almost no effect)),5 (Herbicidal rate of 90% or more (almost completely withered)),,,,,,,,,,,,,,"Herbicidal effect by soil treatment, F: southern crabgrass [6]: 4 (Herbicidal rate of 70% or more and less than 90%); Herbicidal effect by soil treatment, H: barnyard grass [7]: 5 (Herbicidal rate of 90% or more (almost completely withered)); Herbicidal effect by soil treatment, J: blackgrass [8]: 3 (Herbicidal rate of 40% or more and less than 70%); Herbicidal effect by soil treatment, N: redroot pigweed [9]: 5 (Herbicidal rate of 90% or more (almost completely withered)); Herbicidal effect by soil treatment, P: chickweed [10]: 4 (Herbicidal rate of 70% or more and less than 90%); herbicidal effect on F: southern crabgrass (evaluation grade 0-5) [11, 18]: 5 (Herbicidal rate of 90% or more (almost completely withered)); herbicidal effect on G: green foxtail (evaluation grade 0-5) [12, 18]: 5 (Herbicidal rate of 90% or more (almost completely withered)); herbicidal effect on I: wild oat (evaluation grade 0-5) [13, 18]: 5 (Herbicidal rate of 90% or more (almost completely withered)); herbicidal effect on J: blackgrass (evaluation grade 0-5) [14, 18]: 5 (Herbicidal rate of 90% or more (almost completely withered)); herbicidal effect on N: redroot pigweed (evaluation grade 0-5) [15, 18]: 5 (Herbicidal rate of 90% or more (almost completely withered)); herbicidal effect on O: lambsquarters (evaluation grade 0-5) [16, 18]: 4 (Herbicidal rate of 70% or more and less than 90%); herbicidal effect on R: persian speedwell (evaluation grade 0-5) [17, 18]: 5 (Herbicidal rate of 90% or more (almost completely withered))"
